According to PubChem BioAssay (NCI):
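In this assay, cells in 96-well plates receive the compound at five concentrations for 48 hours. Endpoints are linearly interpolated between the surrounding concentrations. TGI: concentration producing complete growth inhibition.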

Experiments:
Assay in all cases: NCI anticancer screen, dose series, 48 h
[1] = system: COLO 205 colon
[2] = system: MDA-N
[3] = system: UO-31 renal
[4] = system: HT29 colon
[5] = system: SK-MEL-2 melanoma
[6] = system: NCI/ADR-RES ovarian
[7] = system: NCI-H23 lung
[8] = system: DU-145 prostate
[9] = system: ACHN renal
[10] = system: SF-295 CNS
[11] = system: TK-10 renal
[12] = system: HOP-62 NSCLC
[13] = system: CAKI-1 renal
[14] = system: 786-0 renal
[15] = system: SW-620 colon
[16] = system: HCT-116 colon
[17] = system: A549 NSCLC
[18] = system: MALME-3M melanoma
[19] = system: UACC-257 melanoma
[20] = system: SK-MEL-5 melanoma
[21] = system: RPMI-8226 leukemia
[22] = system: MDA-MB-231 breast
[23] = system: U251 CNS
[24] = system: LOX IMVI melanoma
[25] = system: T-47D breast
[26] = system: CCRF-CEM leukemia
[27] = system: MCF7 breast
[28] = system: PC-3 prostate
[29] = system: SK-MEL-28 melanoma
[30] = system: MOLT-4 leukemia
[31] = system: NCI-H460 lung
[32] = system: SF-539 CNS
[33] = system: A498 renal
[34] = system: HS 578T breast
[35] = system: BT-549 breast
[36] = system: HL-60(TB) leukemia
[37] = system: MDA-MB-435
[38] = system: OVCAR-5 ovarian
[39] = system: HOP-92 NSCLC
[40] = system: HCT-15 colon
[41] = system: SR leukemia
[42] = system: KM12 colon
[43] = system: OVCAR-3 ovarian
[44] = system: NCI-H226 lung
[45] = system: SNB-19 CNS
[46] = system: SK-OV-3 ovarian
[47] = system: K-562 leukemia
[48] = system: SNB-75 CNS
[49] = system: EKVX NSCLC
[50] = system: UACC-62 melanoma
[51] = system: HCC-2998 colon
[52] = system: IGROV1 ovarian
[53] = system: OVCAR-4 ovarian
[54] = system: NCI-H522 lung
[55] = system: M14 melanoma
[56] = system: OVCAR-8 ovarian
[57] = system: RXF 393 renal
[58] = system: SF-268 CNS
[59] = system: SN12C renal

Clc1ccc(C(Cc2cccc(Cl)c2)c2c(Cl)nc(N3CCNCC3)nc2Cl)cc1 (stereo not drawn)
TGI [1]: 11.9 µM
TGI [2]: 29.6 µM
TGI [3]: 25.8 µM
TGI [4]: > 100 µM
TGI [5]: 40.9 µM
TGI [6]: 36.2 µM
TGI [7]: 34.1 µM
TGI [8]: 33.9 µM
TGI [9]: 28.8 µM
TGI [10]: 31 µM
TGI [11]: 30.4 µM
TGI [12]: 28.9 µM
TGI [13]: 24.4 µM
TGI [14]: 27.5 µM
TGI [15]: 30.1 µM
TGI [16]: 25.9 µM
TGI [17]: 29.5 µM
TGI [18]: 26.4 µM
TGI [19]: 37.6 µM
TGI [20]: 29.7 µM
TGI [21]: 52.2 µM
TGI [22]: 26.4 µM
TGI [23]: 30 µM
TGI [24]: 25.5 µM
TGI [25]: 31 µM
TGI [26]: 31.9 µM
TGI [27]: 24.6 µM
TGI [28]: 30.6 µM
TGI [29]: 33.6 µM
TGI [30]: 24.6 µM
TGI [31]: 30.9 µM
TGI [32]: 35.2 µM
TGI [33]: 28.5 µM
TGI [34]: 38.8 µM
TGI [35]: 39.1 µM
TGI [36]: 23.1 µM
TGI [37]: 30.3 µM
TGI [38]: 25 µM
TGI [39]: 27.1 µM
TGI [40]: 26.4 µM
TGI [41]: 17.5 µM
TGI [42]: 26.8 µM
TGI [43]: 29.2 µM
TGI [44]: > 100 µM
TGI [45]: 30.5 µM
TGI [46]: 27.1 µM
TGI [47]: 26.5 µM
TGI [48]: 26.7 µM
TGI [49]: > 100 µM
TGI [50]: 36.7 µM
TGI [51]: 28.4 µM
TGI [52]: > 100 µM
TGI [53]: 31.3 µM
TGI [54]: 28 µM
TGI [55]: 26.2 µM
TGI [56]: 38.4 µM

Cc1c(Cl)nc(Cl)nc1Cl
TGI [1]: 1.15 µM
TGI [2]: 6.85 µM
TGI [3]: 1.18 µM
TGI [4]: 6.4 µM
TGI [57]: 4.07 µM
TGI [6]: 4.45 µM
TGI [7]: 4.64 µM
TGI [8]: 11.1 µM
TGI [9]: 0.829 µM
TGI [10]: 10.6 µM
TGI [11]: 7.16 µM
TGI [12]: 9.22 µM
TGI [13]: 0.695 µM
TGI [14]: 3.7 µM
TGI [15]: 4.68 µM
TGI [16]: 3.95 µM
TGI [17]: 7.34 µM
TGI [18]: 2.68 µM
TGI [19]: 5.67 µM
TGI [20]: 5.8 µM
TGI [22]: 2.99 µM
TGI [23]: 3.18 µM
TGI [24]: 1.34 µM
TGI [25]: 4.11 µM
TGI [26]: 0.676 µM
TGI [27]: 2.6 µM
TGI [28]: 5.35 µM
TGI [29]: 8.5 µM
TGI [30]: 1.38 µM
TGI [31]: 20.1 µM
TGI [32]: 5.62 µM
TGI [33]: 11.9 µM
TGI [34]: 8.31 µM
TGI [58]: 4.01 µM
TGI [35]: 10.2 µM
TGI [37]: 6.75 µM
TGI [38]: 3.46 µM
TGI [39]: 4.99 µM
TGI [40]: 1.25 µM
TGI [41]: 10.8 µM
TGI [42]: 6.15 µM
TGI [43]: 3.25 µM
TGI [44]: 8.46 µM
TGI [45]: 9.09 µM
TGI [46]: 11.7 µM
TGI [48]: 11.7 µM
TGI [49]: 3.82 µM
TGI [50]: 9.42 µM
TGI [51]: 2.73 µM
TGI [52]: 8.33 µM
TGI [53]: 2.8 µM
TGI [54]: 0.118 µM
TGI [55]: 2.11 µM
TGI [56]: 18.9 µM
TGI [59]: 7.53 µM

Cc1ccc(N=NC(=Nc2ccc(Cl)cc2)c2ccc(N(CCC#N)CCC#N)cc2)cc1
TGI [1]: 55.6 µM
TGI [2]: > 100 µM
TGI [3]: > 100 µM
TGI [4]: > 100 µM
TGI [57]: > 100 µM
TGI [6]: > 100 µM
TGI [7]: > 100 µM
TGI [8]: > 100 µM
TGI [9]: > 100 µM
TGI [10]: > 100 µM
TGI [11]: 95.8 µM
TGI [12]: > 100 µM
TGI [13]: > 100 µM
TGI [14]: > 100 µM
TGI [15]: > 100 µM
TGI [16]: > 100 µM
TGI [17]: > 100 µM
TGI [19]: 76.1 µM
TGI [20]: > 100 µM
TGI [21]: > 100 µM
TGI [22]: 81.8 µM
TGI [23]: 59.5 µM
TGI [25]: > 100 µM
TGI [26]: > 100 µM
TGI [27]: > 100 µM
TGI [28]: 92 µM
TGI [29]: > 100 µM
TGI [30]: > 100 µM
TGI [31]: > 100 µM
TGI [32]: > 100 µM
TGI [33]: > 100 µM
TGI [34]: > 100 µM
TGI [58]: > 100 µM
TGI [35]: > 100 µM
TGI [37]: > 100 µM
TGI [38]: > 100 µM
TGI [39]: > 100 µM
TGI [40]: > 100 µM
TGI [41]: > 100 µM
TGI [42]: > 100 µM
TGI [43]: > 100 µM
TGI [44]: > 100 µM
TGI [45]: > 100 µM
TGI [46]: > 100 µM
TGI [47]: > 100 µM
TGI [48]: > 100 µM
TGI [49]: > 100 µM
TGI [50]: > 100 µM
TGI [51]: 90.1 µM
TGI [52]: > 100 µM
TGI [53]: > 100 µM
TGI [54]: 66 µM
TGI [55]: > 100 µM
TGI [56]: > 100 µM
TGI [59]: > 100 µM

Cc1ccc(-c2n[nH]c(=O)n2NC(=O)c2ccccc2C(=O)O)cc1
TGI [2]: > 100 µM
TGI [3]: > 100 µM
TGI [4]: > 100 µM
TGI [57]: > 100 µM
TGI [5]: > 100 µM
TGI [6]: > 100 µM
TGI [7]: > 100 µM
TGI [8]: > 100 µM
TGI [9]: > 100 µM
TGI [10]: > 100 µM
TGI [11]: > 100 µM
TGI [12]: > 100 µM
TGI [13]: > 100 µM
TGI [14]: > 100 µM
TGI [15]: > 100 µM
TGI [16]: > 100 µM
TGI [17]: > 100 µM
TGI [18]: > 100 µM
TGI [19]: > 100 µM
TGI [20]: > 100 µM
TGI [21]: > 100 µM
TGI [22]: > 100 µM
TGI [23]: > 100 µM
TGI [24]: > 100 µM
TGI [25]: > 100 µM
TGI [27]: > 100 µM
TGI [28]: > 100 µM
TGI [29]: > 100 µM
TGI [30]: > 100 µM
TGI [31]: > 100 µM
TGI [32]: > 100 µM
TGI [34]: > 100 µM
TGI [58]: > 100 µM
TGI [35]: > 100 µM
TGI [36]: > 100 µM
TGI [37]: > 100 µM
TGI [39]: > 100 µM
TGI [40]: > 100 µM
TGI [41]: > 100 µM
TGI [42]: > 100 µM
TGI [43]: > 100 µM
TGI [44]: > 100 µM
TGI [45]: > 100 µM
TGI [47]: > 100 µM
TGI [48]: > 100 µM
TGI [50]: > 100 µM
TGI [51]: > 100 µM
TGI [52]: > 100 µM
TGI [54]: > 100 µM
TGI [55]: > 100 µM
TGI [56]: > 100 µM
TGI [59]: > 100 µM
